In brackets after ≈: the same amount, converted by molar mass. Read-outs that look alike come from different tables or passages of the source.
Key:
[1] = tested on: bacteria listed in Table 1; assay: Antibacterial test on the bacteria listed in Table 1 (overall statements); assay type: cell-based; conditions: for antimicrobial activity compared with the (6E)-2,3-dihydrofarnesol described before: same test, bacteria listed in Table 1
Experimental: (§1) The minimum inhibitory concentrations of (6E)-2,3-dihydrofarnesol synthesized in Synthesis Example 1 on bacteria listed in Table 1 were determined in the following manner by the step dilution method in an agar medium.
(§2) 10 g of brain heart infusion medium (manufactured by Nissui Seiyaku K.K.), 10 g of dry bouillon (manufactured by Nissui Seiyaku K.K.), 4 g of yeast extract powder (manufactured by Difco Laboratories) and 14 g of agar were added to 1,000 ml of distilled water and dissolved therein by heating. Then the obtained solution was pipetted in 10 ml portions into test tubes and sterilized under elevated pressure. Then it was heated again and sustained in the state of a solution. Subsequently, each test solution and ethanol or DMSO (dimethyl sulfoxide) free from any antimicrobial compound of the present invention (employed as a control) were added thereto in amounts of 5 to 200 μl. After mixing, the solutions were poured into plastic Petri dishes (inner diameter: 90 mm) and solidified.
(§3) The medium thus solidified in each Petri dish was divided into 9 parts. Then 5 μl portions of suspensions of the test microorganisms except acne bacteria in distilled water (cell or spore count: 10^8 -10^9 /ml) were inoculated thereinto and incubated at 30° C. for 48 hours.
(§4) In the case of the acne bacteria, a GAM medium (manufactured by Nissui Seiyaku K.K.) was pipetted in 6 ml portions into screwed test tubes (10×105 mm) and sterilized. After adding sample solutions, a culture medium of the acne bacteria was inoculated in 5 μl portions and incubated at 37° C. for 48 hours followed by the judgement of the growth.
Further, the (6E)-2,3-dihydrofarnesol synthesized in Synthesis Example 2 and the (3S)-(6E)-2,3-dihydrofarnesol synthesized in Synthesis Example 3 were subjected to the same test by using the bacteria listed in Table 1.

[2] = tested on: human skin; assay: Patch test on human skin (inside of upper arms); conditions: for skin irritation: 10% in lanolin, 30 subjects, first 24 hours and subsequent 24 hours
Experimental: The obtained solution was then applied onto patches (Finnchamber, manufactured by Taisho Pharmaceutical Co., Ltd.). These patches were adhered to the inside of upper arms of 30 subjects. After 24 hours, the patches were peeled from the skin and the skin irritation was examined. Further, the skin irritation was examined after the subsequent 24 hours.

[3] = tested on: Bacillus subtilis; assay: Antibacterial test, step dilution method in agar medium; assay type: cell-based; conditions: 30° C., 48 hours
Experimental: as §1, §2, §3

[4] = tested on: Pseudomonas aeruginosa; assay: as above; assay type: cell-based; conditions: 30° C., 48 hours
Experimental: as §1, §2, §3

[5] = tested on: acne bacteria; assay: Antibacterial test, acne bacteria in GAM medium; assay type: cell-based; conditions: 37° C., 48 hours
Experimental: as §1, §4

[6] = tested on: human skin; conditions: in vivo
[7] = tested on: Guinea pig skin; conditions: in vivo
Experimental: A sensitization test with the use of Guinea pigs was carried out in accordance with the Magnusson method by using (a) the (6E)-2,3-dihydrofarnesol of a purity of 99% or above, (b) the (6E)-2,3-dihydrofarnesol of a purity of 52% and (d) the (3S)-(6E)-2,3-dihydrofarnesol.
Then the same test was performed by using farnesol [(2E,6E)-form: (2E,6Z)-form: (2Z,6E)-form: (2Z,6Z)-form=1:1:1:1] which was an analog of the (6E)-2,3-dihydrofarnesol of the present invention.

[8] = tested on: skin; conditions: background, restricts use on a mass scale; cited from earlier work
[9] = tested on: Staphylococcus aureus; assay: Antibacterial test, step dilution method in agar medium; assay type: cell-based; conditions: 30° C., 48 hours, read-out: minimum inhibitory concentration (MIC)
Experimental: as §1, §2, §3

[10] = tested on: coryne bacteria; assay: as above; assay type: cell-based; conditions: 30° C., 48 hours, read-out: minimum inhibitory concentration (MIC)
Experimental: as §1, §2, §3

[11] = tested on: indigenous skin bacteria; assay: as above; assay type: cell-based; conditions: 30° C., 48 hours, read-out: minimum inhibitory concentration (MIC)
Experimental: as §1, §2, §3

[12] = tested on: bacteria listed in Table 1; conditions: JP-A-60-64913; cited from earlier work

CC(C)=CCC/C(C)=C/CCC(C)CCO (stereo not drawn) [(6E)-2,3-dihydrofarnesol]
antimicrobial activity compared with farnesol [1]: superior to farnesol in the antimicrobial activity on some bacteria
sensitization, human skin ([2]; 10% in a lanolin solution): no sensitization

CC(C)=CCC/C(C)=C/CCC(C)CCO (stereo not drawn) [(a), (6E)-2,3-dihydrofarnesol]
antimicrobial activity compared with the (6E)-2,3-dihydrofarnesol described before [1]: almost the same as those described above, though some differences were observed
skin irritation [2]: no skin irritation

CC(C)=CCC/C(C)=C/CCC(C)CCO (stereo not drawn) [(b), (6E)-2,3-dihydrofarnesol]
minimum inhibitory concentration (MIC) [3]: 20 ppm
minimum inhibitory concentration (MIC) [4]: 20 ppm
concentration at which an antimicrobial activity was exerted [5]: ≤ 10 ppm
concentration at which an antimicrobial activity was observed ([1]; bacteria of Table 1): ≤ 30 ppm
skin irritation [6]: no skin irritation

CC(C)=CCC/C(C)=C/CC[C@H](C)CCO [(d), (3S)-(6E)-2,3-dihydrofarnesol]
sensitization [7]: high safety without any sensitization
antimicrobial activity compared with the (6E)-2,3-dihydrofarnesol described before [1]: antimicrobial activity similar to the above-mentioned (6E)-2,3-dihydrofarnesol
antimicrobial activity compared with the (6E)-2,3-dihydrofarnesol described before ([1]; listed as (3S)-(6E)-2,3-dihydrofarnesol synthesized in Synthesis Example 3): almost the same as those described above, though some differences were observed
skin irritation [2]: no skin irritation

CC(C=O)Cc1ccc(C(C)C)cc1 (stereo not drawn) [cyclamen aldehyde]
skin sensitization [8]: skin sensitization

CC(C)=CCCC(C)=CCCC(C)=CCO [farnesol]
MIC [9]: 50 µg/mL (≈ 225 µM)
MIC [10]: 25 µg/mL (≈ 112 µM)
MIC [11]: 50 µg/mL (≈ 225 µM)
antimicrobial activity [12]: has an antimicrobial activity
